According to ChEMBL document CHEMBL4007496, “Isolation and characterization of diterpene glycosides from Siegesbeckia pubescens” (Bioorg Med Chem Lett, 2017):

Key:
MDA-MB-231 = assay: Inhibition of EGF-induced invasion of human MDA-MB-231 cells by MTT assay; format: functional, cell-based
RAW264.7 = assay: Antiinflammatory activity in mouse RAW264.7 cells assessed as inhibition of LPS-induced nitric oxide production preincubated for 30 mins followed by LPS challenge measured after 24 hrs by Griess assay; format: functional, cell-based

Row | Structure (SMILES) | IC50 (MDA-MB-231) [µM] | IC50 (RAW264.7) [µM]
1 | CC1(C)[C@H]2CCC3=C[C@@](C)(C=O)CC[C@H]3[C@]2(C)CC[C@H]1O[C@@H]1O[C@H](CO)[C@@H](O)[C@H](O)[C@H]1O | > 25 | > 100
2 | CC1(C)[C@H](O)CC[C@@]2(C)[C@@H]3CC[C@](C)([C@@H](O)CO)C=C3CC[C@H]12 [DARUTIGENOL] | > 25 | –
3 | CC1(C)[C@H]2CCC3=C[C@@](C)([C@@H](O)CO)CC[C@H]3[C@]2(C)CC[C@H]1O[C@@H]1O[C@H](CO)[C@@H](O)[C@H](O)[C@H]1O | > 25 | > 100
4 | C=C1C[C@]23CC[C@@H]4[C@](C)(CO[C@@H]5O[C@H](CO)[C@@H](O)[C@H](O)[C@H]5O)CC(=O)C[C@@]4(C)[C@@H]2CC[C@@]1(O)C3 | 26.8 | > 100
5 | CC1(C)[C@H]2CCC3=C(CC[C@](C)([C@@H](O)CO)C3)[C@]2(C)CC[C@H]1O[C@@H]1O[C@H](CO)[C@@H](O)[C@H](O)[C@H]1O | > 25 | > 100

Further molecules by falling IC50 (MDA-MB-231), results first:

Row | IC50 (MDA-MB-231) [µM] | IC50 (RAW264.7) [µM] | Structure (SMILES)
6 | 24.8 | > 100 | CC1(C)[C@@H](O[C@@H]2O[C@H](CO)[C@@H](O)[C@H](O)[C@H]2O)CC[C@@]2(C)[C@@H]3CC[C@](C)([C@@H](O)CO)C=C3CC[C@H]12
7 | 0.27 | > 100 | CC1(C)[C@H]2CCC3=C[C@@](C)([C@H](O)CO)CC[C@H]3[C@]2(C)CC[C@H]1O[C@@H]1O[C@H](CO)[C@@H](O)[C@H](O)[C@H]1O
